Experiments:
[1] = Pharmacokinetics after single dose via inhalation (LC-MS/MS); format: in vivo, human; conditions: after 3 hours; whole dose range 6, 12, 18 mg
[2] = system: Escherichia coli (WP2 uvrA pKM101); assay: Bacterial mutation test; format: cell-based; conditions: up to 5000 μg/plate; absence and presence of rat liver S-9
Protocol: (§1) These conditions included treatments at concentrations up to 5000 μg/plate (the maximum recommended concentration according to current regulatory guidelines), in the absence and in the presence of a rat liver metabolic activation system (S-9).

[3] = system: Salmonella typhimurium (TA98, TA100, TA1535 and TA1537); assay: Bacterial mutation test; format: cell-based; conditions: up to 5000 μg/plate; absence and presence of rat liver S-9
Protocol: as §1

[4] = system: patients with postpartum depression (PPD); assay: Clinical trial of 5-MeO-DMT via inhalation (individualized dosing regimen) in postpartum depression; conditions: n=1
Protocol: The single-arm, open-label clinical trial will involve 15 adult female patients with clinically diagnosed postpartum depression (PPD).
The second dose (12 mg) will only be administered if: • a. A peak experience (total score of ⋅75) has not been achieved following the 6 mg dose, and • b. The 6 mg dose was safe and well-tolerated according to the investigator, • c. Any psychoactive effects (PsE) of the prior dose have subsided, and • d. Pre-dose vital parameters and forced expiratory volume in one second (FEV1) are in normal range, or if outside of the normal range, are not clinically significant according to the investigator. • 3. Similarly, a third dose (18 mg) will only be administered if: • a. A peak experience (total score of ⋅75) has not been achieved following the 12 mg dose, and • b. The 12 mg dose was safe and well-tolerated according to the investigator, and • c. Any PsE of the prior dose have subsided, and • d. Pre-dose vital parameters and forced expiratory volume in one second (FEV1) are in normal range, or if outside of the normal range, are not clinically significant according to the investigator.
The patients will be assessed for a peak psychedelic experience (based on a patient-scored visual analogue scale, the PE scale), sedation, and other endpoints after dosing. Follow-up visits are planned for Day 1, and Day 7 after the dosing day.
The following criteria must be met by all patients considered for clinical trial participation: • 1. Is female and in the age range between 18 and 45 years (inclusive) at screening. • 2. Has a body mass index (BMI) in the range of 18.5 and 35 kg/m^2 (inclusive) at screening. • 3. Meets the trial criteria for PPD as assessed by a trial psychiatrist or registered psychologist: • a. Diagnosis of Major Depressive Disorder without psychotic features, confirmed by the Mini-International Neuropsychiatric Interview (MINI), with peri-partum onset that began no earlier than gestation and no later than the first 4 weeks postpartum. • b. Has a Montgomery-Åsberg Depression Rating Scale (MADRS) total score of equal to or greater than 28 at screening and pre-dose on Day 0. • 6. […] Patients must have a negative pregnancy test at screening and on the pre-test day (Day −1). • 5. Is willing to delay start of other antidepressant or anxiety medication until after the end of the trial at Day 7 and agrees to keep any psychotherapy unchanged during the trial.

COc1ccc2[nH]cc(CCN(C)C)c2c1 [5-MeO-DMT]
Detectability in the plasma [1]: no longer detectable
Induction of mutation [2]: did not induce mutation
Induction of mutation [3]: did not induce mutation
Inhalation-related adverse events [4]: no inhalation-related adverse events
MADRS remission (MADRS total score equal or less than 10) [4]: fulfilled
MADRS response (at least 50% improvement from baseline) [4]: fulfilled
Reported adverse events (cramping left abdominal pain and headache, Day 0) [4]: mild, short-lasting and resolved spontaneously
BIMF total score improvement ([4]; Day 7, from 92 to 105): 14%
BIMF item 2 score: I feel rested ([4]; Day 7, Day 0 0): 2
BIMF item 19 score: As time goes on, I am getting better at taking care of my baby ([4]; Day 7, Day 0 0): 1
BIMF item 18 score: Anxiety or worry often interferes with my mothering ability ([4]; Day 7, Day 0 2): 5
BIMF item 16 score: I worry about how other people judge me (as a mother) ([4]; Day 7, Day 0 3): 5
BIMF item 13 score: I am taking good care of my physical needs (eating, showering, etc) ([4]; Day 7, Day 0 4): 5
BIMF item 4 score: My baby and I understand each other ([4]; Day 7, Day 0 5): 5
BIMF item 5 score: I am able to relax and enjoy time with my baby ([4]; Day 7, Day 0 5): 6
BIMF item 9 score: I am getting enough encouragement from other people ([4]; Day 7, Day 0 5): 6
BIMF item 10 score: I trust my own feelings (instincts) when it comes to taking care of my baby ([4]; Day 7, Day 0 5): 6
BIMF item 11 score: I take a little time each week to do something for myself ([4]; Day 7, Day 0 5): 6
BIMF item 15 score: My baby and I are getting into a routine ([4]; Day 7, Day 0 5): 6
BIMF item 17 score: I am able to take care of my baby and my other responsibilities ([4]; Day 7, Day 0 5): 5
BIMF item 1 score: I am a good mother ([4]; Day 7, Day 0 6): 6
BIMF item 3 score: I am comfortable with the way I've chosen to feed my baby (either bottle or breast, or both) ([4]; Day 7, Day 0 6): 6
BIMF item 6 score: There are people in my life that I can trust to care for my baby when I need a break ([4]; Day 7, Day 0 6): 6
BIMF item 8 score: I am getting enough adult interaction ([4]; Day 7, Day 0 6): 6
BIMF item 12 score: I am taking good care of my baby's physical needs (feedings, changing diapers, doctor's appointments) ([4]; Day 7, Day 0 6): 6
BIMF item 14 score: I make good decisions about my baby's health and well being ([4]; Day 7, Day 0 6): 6
BIMF item 20 score: I am satisfied with the job I am doing as a new mother ([4]; Day 7, Day 0 6): 5
BIMF item 1 Δ (Day 7) ([4]; Day 7 vs Day 0): 0
BIMF item 2 Δ (Day 7) ([4]; Day 7 vs Day 0): 2
BIMF item 3 Δ (Day 7) ([4]; Day 7 vs Day 0): 0
BIMF item 4 Δ (Day 7) ([4]; Day 7 vs Day 0): 0
BIMF item 5 Δ (Day 7) ([4]; Day 7 vs Day 0): 1
BIMF item 6 Δ (Day 7) ([4]; Day 7 vs Day 0): 0
BIMF item 7 Δ (Day 7) ([4]; Day 7 vs Day 0): 0
BIMF item 8 Δ (Day 7) ([4]; Day 7 vs Day 0): 0
BIMF item 9 Δ (Day 7) ([4]; Day 7 vs Day 0): 1
BIMF item 10 Δ (Day 7) ([4]; Day 7 vs Day 0): 1
BIMF item 11 Δ (Day 7) ([4]; Day 7 vs Day 0): 1
BIMF item 12 Δ (Day 7) ([4]; Day 7 vs Day 0): 0
BIMF item 13 Δ (Day 7) ([4]; Day 7 vs Day 0): 1
BIMF item 14 Δ (Day 7) ([4]; Day 7 vs Day 0): 0
BIMF item 15 Δ (Day 7) ([4]; Day 7 vs Day 0): 1
BIMF item 16 Δ (Day 7) ([4]; Day 7 vs Day 0): 2
BIMF item 17 Δ (Day 7) ([4]; Day 7 vs Day 0): 0
BIMF item 18 Δ (Day 7) ([4]; Day 7 vs Day 0): 3
BIMF item 19 Δ (Day 7) ([4]; Day 7 vs Day 0): 1
BIMF item 20 Δ (Day 7) ([4]; Day 7 vs Day 0): −1
Time to clinical remission after administration ([4]; IDR 6 mg followed by 12 mg): ≤ 2 h

Reference: patent US20250213534A1, “5-METHOXY-N,N-[…][…] THE TREATMENT OF COGNITIVE DYSFUNCTION” (GH RESEARCH IRELAND LIMITED, priority 2022, published 2025)
